Experimental findings from patent publication US20250339569A1, “CARBONIC ANHYDRASE IX LIGANDS” (priority 2021, published 2025) are described below.

In data set [1] the target is T1, CAIX-expressing human HT-29 colorectal cancer cells (Homo sapiens, UniProt Q16790).
T1 construct: CAIX-expressing human HT-29 colorectal cancer cells; host or cells: HT-29 human colorectal cancer cells
Briefly: FACS binding assay (IC50 determination, competition with tracer 3BP-2776 or 3BP-4149). To be noted: FACS competition on HT-29 cells, Tracer ID 3BP-2776 (10 nM, biotin-labeled), 4° C., 1 hour; read-out: pIC50 category (activity) (converted). The method, boiled down:
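HT-29 cells in FACS buffer (PBS, 1% FCS) at 500.000 cells/ml were exposed to compounds competing with a labelled tracer, with biotinylated compounds detected by 1 μg/mL APC-streptavidin for 30 min on ice. APC/Cy5 median fluorescence was read by flow cytometry and IC50 derived by 4PL fit.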

In data set [2] the target is T2, human carbonic anhydrase IX (hCAIX-Fc) (Homo sapiens, UniProt Q16790).
T2 construct: purchased SinoBliological (Sino Biological) 10107-H02H
Put plainly: Surface plasmon resonance assay with hCAIX-Fc. The following applies: 25° C.; for t1/2 category (activity): SPR dissociation half-life, hCAIX-Fc; for Kd: SPR, hCAIX-Fc captured, read-out: pKD category (activity) (converted). The class given is binding. On the technique in general: SPR reads the build-up and loss of mass on a sensor chip optically.

Data set [3] deals with T3, Recombinant soluble human NEP (Homo sapiens, UniProt P08473).
T3 construct: Recombinant soluble human NEP; purchased BioTechne, Wiesbaden, Germany
Briefly: Proteolytic stability assay against NEP. The class given is in vitro ADME. The following applies: 100 ng/mL NEP, 10 μM compound, 37°C. The procedure: To assess the stability of compounds against NEP, the compounds were subjected to an in vitro assay based on the protocol described by Edelson et al. (Edelson et al., Pulmonary pharmacology & therapeutics, 2013, 26, 229-238).
Recombinant soluble human NEP (BioTechne, Wiesbaden, Germany) at a concentration of 100 ng/mL was mixed with the compound (10 μM) and a stable internal standard (10 μM) and incubated at 37° C. After several time points, samples were taken and analyzed with LC-MS.
The activity of NEP was examined using a commercially available chromogenic substrate of NEP.

Data set [4] in a line: Plasma stability assay, mouse plasma. The following applies: mouse plasma, 37°C, 4 h.
The target in another data set is human CAIX (Homo sapiens, UniProt Q16790). Briefly: In vitro SPR binding assay of DPI-4452, natLu-DPI-4452 and natGa-DPI-4452 to CAIX (anti-human Fc capture). The arrangement: purchased SinoBliological (Sino Biological) 10107-H02H. The following applies: SPR.

Starred links: 1 amine or outer side, 2 acyl side, 3 side chain; linkers in the order of their positions; H or OH if unused. Positions of bridges follow the written chain, without caps; N, C: chain ends. Non-standard residues stand in square brackets, D forms with d. Residues, ends and D or L forms follow the SMILES beside them. *: point of attachment. NH(CH2)5NHDOTA = O=C(O)CN1CCN(CC(=O)O)CCN(CC(=O)NCCCCCN*)CCN(CC(=O)O)CC1; NH(CH2)3NHDOTA = O=C(O)CN1CCN(CC(=O)O)CCN(CC(=O)NCCCN*)CCN(CC(=O)O)CC1; X3 = O=C(O)CN1CCN(CC(=O)O)CCN(CC(=O)NCCCOCCOCCOCCCN*)CCN(CC(=O)O)CC1; DOTA = O=C(O)CN1CCN(CC(=O)O)CCN(CC(=O)*)CCN(CC(=O)O)CC1; mXylylene = c1cc(C[*:1])cc(C[*:2])c1; X2 = O=C(CN1CCC(N[*:1])CC1)[*:2]; Suc = O=C(CCC(=O)[*:2])[*:1]

T3 sequence (P08473 52-750 limits assumed): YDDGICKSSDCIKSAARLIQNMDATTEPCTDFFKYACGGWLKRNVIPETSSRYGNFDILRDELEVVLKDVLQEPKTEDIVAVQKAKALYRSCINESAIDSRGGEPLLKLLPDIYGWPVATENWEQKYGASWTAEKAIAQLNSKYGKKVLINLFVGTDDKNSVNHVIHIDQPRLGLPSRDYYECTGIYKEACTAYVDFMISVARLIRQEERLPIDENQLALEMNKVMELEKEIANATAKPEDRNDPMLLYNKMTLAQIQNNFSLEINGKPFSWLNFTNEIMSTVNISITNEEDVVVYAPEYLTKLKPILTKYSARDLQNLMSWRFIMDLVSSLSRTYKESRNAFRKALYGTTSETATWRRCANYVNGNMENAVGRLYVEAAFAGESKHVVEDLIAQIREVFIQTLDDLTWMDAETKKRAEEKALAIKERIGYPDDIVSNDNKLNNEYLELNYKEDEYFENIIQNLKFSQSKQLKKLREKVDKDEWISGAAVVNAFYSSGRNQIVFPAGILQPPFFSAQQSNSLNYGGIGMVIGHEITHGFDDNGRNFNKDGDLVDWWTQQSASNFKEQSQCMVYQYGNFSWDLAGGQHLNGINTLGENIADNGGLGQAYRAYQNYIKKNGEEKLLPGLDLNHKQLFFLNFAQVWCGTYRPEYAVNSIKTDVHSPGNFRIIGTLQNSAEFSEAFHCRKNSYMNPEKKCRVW
Experimental for human CAIX: Surface Plasmon Resonance (SPR) studies were performed on a Biacore™ T200 using a ligand capture approach. Basically, anti-human Fc antibodies were immobilized on the surface of a sensor chip and CAIX was captured on the functionalized surface via its Fc Tag.
Then, each compound was injected at increasing concentrations on the captured CAIX in order to measure the in real-time interaction of the compound to its target (i.e. the captured CAIX). The in real-time monitoring of the association and dissociation of the interaction gives access to the interaction kinetics parameters (i.e. the association and dissociation rate constants and the resulting affinity constants).
• A series S CM5 sensor chip was used (Cytiva). • All reagents used for the immobilization procedure were part of the Amine Coupling Kit, type 2 and/or the Human Antibody Capture Kit (Cytiva). The running buffer (HBS-EP+) was prepared by 10-fold dilution of the stock HBS-EP+ 10× solution (Cytiva). • Anti-human Fc antibodies stock solution (0.5 mg/mL in 0.15 M NaCl) was diluted in 10 mM sodium acetate pH 5.0 to a final concentration of 25 μg/mL directly into a plastic vial 7 mm. • Amine coupling reagents were transferred into plastic vials 7 mm as follow: • 95 μL of 0.4 M 1-ethyl-3-(3-dimethylaminopropyl)carbodiimide (EDC). • 95 μL of 0.1 M N-hydroxysuccinimide (NHS). • An empty plastic vial 7 mm was added in the Biacore™ sample rack for mixing. • 150 μL of 1 M ethamolamine-HCl, pH 8.5. • Plastic vials were closed with rubber caps and the sample rack was inserted into the Biacore™ T200 sample compartment. • The Biacore™ T200 Amine Wizard was used to immobilize the anti-Human Fc antibodies on the four flow-cells of a series S CM5 sensor chip simultaneously with defined contact time of 360 seconds and flow-rate of 5 μL/min. • The immobilization procedure was performed at 25° C., following Cytiva's recommendations, as described in Table 23.
This procedure allowed to reach immobilization levels between 6000 and 9000 RU of anti-human Fc antibodies on the sensor chip surface.
• CAIX (Sino Biological, 10107-H02H) stock solution was prepared from lyophilized material reconstituted with deionized water to a concentration of 0.25 μg/mL (3.69 μM), following the supplier recommendations. • CAIX working solution was obtained after dilution of CAIX stock solution with PBS-P+1×, 0.1% DMSO to a final concentration of 200 nM directly in a Biacore™ plastic vial.
• For each measurement, the raw surface plasmon resonance response (RU) was plotted against time (s) as a sensorgram using the Biacore™ T200 Control Software. • Raw data were corrected by double referencing with subtraction of the signal of both the reference flow-cell and the blank cycle. • The association and dissociation rate constants (ka and kd, respectively), as well as the dissociation constant KD and dissociation half-life t1/2 were determined from the corrected sensorgrams by fitting the data to a 1:1 Langmuir binding model with the Biacore™ T200 evaluation software.

On to `CC(C)C[C@@H]1NC(=O)[C@H](Cc2c[nH]c3ccccc23)NC(=O)[C@H](CC(=O)O)NC(=O)CNC(=O)[C@H](CCC(=O)O)NC(=O)[C@@H](NC(=O)[C@H](Cc2ccc(O)cc2)NC(=O)[C@@H](NC(=O)CCC(=O)NCCCOCCOCCOCCCNC(=O)CN2CCN(CC(=O)O)CCN(CC(=O)O)CCN(CC(=O)O)CC2)C(C)C)CSCc2cccc(c2)CSC[C@@H](C(N)=O)NC(=O)[C@H](CCC(N)=O)NC(=O)[C@H](Cc2c[nH]c3ccccc23)NC(=O)[C@H]([C@@H](C)O)NC1=O` [3BP-2959] ({X3-Suc}-VYCEGDWLTWQC-NH2; linker 3-12 via mXylylene), for which the IC50 in data set [1] was under 10 nM. In addition, the “t1/2 category (activity)” value in data set [2] is reported as “D (t1/2≤2.0 minutes)”. Besides, the “% intact compound remaining after 24 h incubation” value in data set [3] is reported as over 95%. In addition, in data set [4], the “% intact compound remaining (incubation time)” value is recorded as over 95%.

In the case of `CC(=O)N[C@@H](CCCCNC(=O)CN1CCN(CC(=O)O)CCN(CC(=O)O)CCN(CC(=O)O)CC1)C(=O)N[C@H](C(=O)N[C@@H](Cc1ccc(O)cc1)C(=O)N[C@H]1CSCc2cccc(c2)CSC[C@@H](C(N)=O)NC(=O)[C@H](C)NC(=O)[C@H](Cc2c[nH]c3ccccc23)NC(=O)[C@H]([C@@H](C)O)NC(=O)[C@H](CC(C)C)NC(=O)[C@H](Cc2c[nH]c3ccccc23)NC(=O)[C@H](CC(=O)O)NC(=O)[C@H]2CCCN2C(=O)[C@H](CCC(=O)O)NC1=O)C(C)C` [3BP-3427] (Ac-K(DOTA)VYCE[dP]DWLTWAC-NH2; linker 4-13 via mXylylene), the IC50 in data set [1] is under 10 nM. For the same molecule, the “% intact compound remaining after 24 h incubation” value in data set [3] is reported as over 95%. For the same molecule, the “% intact compound remaining (incubation time)” value in data set [4] is on record as over 95%.

Take `CC(C)C[C@@H]1NC(=O)[C@H](Cc2c[nH]c3ccccc23)NC(=O)[C@H](CC(=O)O)NC(=O)[C@H]2CCCN2C(=O)[C@H](CCC(=O)O)NC(=O)[C@@H](NC(=O)[C@H](Cc2ccc(O)cc2)NC(=O)[C@@H](NC(=O)CN2CCC(NC(=O)CN3CCN(CC(=O)O)CCN(CC(=O)O)CCN(CC(=O)O)CC3)CC2)C(C)C)CSCc2cccc(c2)CSC[C@@H](C(N)=O)NC(=O)[C@H](C)NC(=O)[C@H](Cc2c[nH]c3ccccc23)NC(=O)[C@H]([C@@H](C)O)NC1=O` [3BP-3432] ({DOTA}-[X2]VYCE[dP]DWLTWAC-NH2; linker 4-13 via mXylylene): the IC50 in data set [1] is under 10 nM. Besides, in data set [2], the “t1/2 category (activity)” value is recorded as “A (t1/2>15.0 minutes)” and the Kd is under 10 nM. The “% intact compound remaining after 24 h incubation” value in data set [3] is recorded as over 95%. For the same molecule, the “% intact compound remaining (incubation time)” value in data set [4] was determined as 98%.

For the molecule `CC(=O)N[C@H](C(=O)N[C@@H](Cc1ccc(O)cc1)C(=O)N[C@H]1CSCc2cccc(c2)CSC[C@@H](C(=O)NCCCCCNC(=O)CN2CCN(CC(=O)O)CCN(CC(=O)O)CCN(CC(=O)O)CC2)NC(=O)[C@H](C)NC(=O)[C@H](Cc2c[nH]c3ccccc23)NC(=O)[C@H]([C@@H](C)O)NC(=O)[C@H](CC(C)C)NC(=O)[C@H](Cc2c[nH]c3ccccc23)NC(=O)[C@H](CC(=O)O)NC(=O)[C@H]2CCCN2C(=O)[C@H](CCC(=O)O)NC1=O)C(C)C` [3BP-3434, Ac-Val-Tyr-[Cys(3MeBn)-Glu-pro-Asp-Trp-Leu-Thr-Trp-Ala-Cys]-Ape-NH-DOTA] (Ac-VYCE[dP]DWLTWAC-{NH(CH2)5NHDOTA}; linker 3-12 via mXylylene), the IC50 in data set [1] is under 10 nM. In addition, the “% intact compound remaining after 24 h incubation” value in data set [3] is over 95%. Moreover, in data set [4], the “% intact compound remaining (incubation time)” value is over 95%.

On to `CC(=O)N[C@H](C(=O)N[C@@H](Cc1ccc(O)cc1)C(=O)N[C@H]1CSCc2cccc(c2)CSC[C@@H](C(N)=O)NC(=O)[C@H](CCC(=O)NCCCNC(=O)CN2CCN(CC(=O)O)CCN(CC(=O)O)CCN(CC(=O)O)CC2)NC(=O)[C@H](Cc2c[nH]c3ccccc23)NC(=O)[C@H]([C@@H](C)O)NC(=O)[C@H](CC(C)C)NC(=O)[C@H](Cc2c[nH]c3ccccc23)NC(=O)[C@H](CC(=O)O)NC(=O)[C@H]2CCCN2C(=O)[C@H](CCC(=O)O)NC1=O)C(C)C` [3BP-3478, Ac-Val-Tyr-[Cys(3MeBn)-Glu-pro-Asp-Trp-Leu-Thr-Trp-Glu(NH-Apr-DOTA)-Cys]-NH2] (Ac-VYCE[dP]DWLTWE(NH(CH2)3NHDOTA)C-NH2; linker 3-12 via mXylylene), for which, in data set [1], the IC50 was under 10 nM. In addition, in data set [2], the “t1/2 category (activity)” value was “A (t1/2>15.0 minutes)” and the Kd was under 10 nM. Besides, in data set [3], the “% intact compound remaining after 24 h incubation” value is listed as 63%. In addition, the “% intact compound remaining (incubation time)” value in data set [4] is over 95%.

As to `CC(C)C[C@@H]1NC(=O)[C@H](Cc2cccc(NC(=O)CCCS(N)(=O)=O)c2)NC(=O)[C@H](CC(=O)O)NC(=O)[C@H]2CCCN2C(=O)[C@H](CCC(=O)O)NC(=O)[C@@H](NC(=O)[C@H](CCC(N)=O)NC(=O)CN2CCN(C(=O)CN3CCN(CC(=O)O)CCN(CC(=O)O)CCN(CC(=O)O)CC3)CC2)CSCc2cccc(c2)CSC[C@@H](C(N)=O)NC(=O)[C@H](CO)NC(=O)[C@H](Cc2c[nH]c3ccccc23)NC(=O)[C@H]([C@@H](C)O)NC1=O` [^natGa-DPI-4452, metal not drawn], the “affinity of binding to CAIX” value on human CAIX was “subnanomolar affinity”.

Regarding `CC(C)C[C@@H]1NC(=O)[C@H](Cc2cccc(NC(=O)CCCS(N)(=O)=O)c2)NC(=O)[C@H](CC(=O)O)NC(=O)[C@H]2CCCN2C(=O)[C@H](CCC(=O)O)NC(=O)[C@@H](NC(=O)[C@H](CCC(N)=O)NC(=O)CN2CCN(C(=O)CN3CCN(CC(=O)O)CCN(CC(=O)O)CCN(CC(=O)O)CC3)CC2)CSCc2cccc(c2)CSC[C@@H](C(N)=O)NC(=O)[C@H](CO)NC(=O)[C@H](Cc2c[nH]c3ccccc23)NC(=O)[C@H]([C@@H](C)O)NC1=O` [^natLu-DPI-4452, metal not drawn], the “affinity of binding to CAIX” value on human CAIX was “subnanomolar affinity”.
